{"source": "patent US20200230084A1", "about": "(Strongbridge Dublin Limited, priority 2019, published 2020)", "key": {"[1]": {"tested_on": "patients with primary periodic paralysis", "test": "Phase III double-blind plus open-label extension study: cognition-related adverse events during dichlorphenamide treatment", "assay_type": "in vivo, human", "protocol": "Data were analyzed from a 9-week Phase III, randomized, double-blind, placebo-controlled phase and a 52-week open-label extension phase. The trial included two substudies: one in adults with hyperkalemic periodic paralysis and one in adults with hypokalemic periodic paralysis. The substudy data were pooled. Medical Dictionary for Regulatory Activities high-level group terms of deliria (including confusion) and mental impairment disorders were pooled for cognition-related events. Kaplan-Meier methods were used to estimate the percentages of patients with no occurrence of the adverse event over time.\nDose reductions were allowed for intolerable adverse events. […] Adverse events reported during dichlorphenamide exposure were summarized by double-blind treatment/open label treatment (placebo/dichlorphenamide or dichlorphenamide/dichlorphenamide) group.\nThe age range was 19 to 76 years."}, "[2]": {"details": "cited from earlier work"}, "[3]": {"details": "cited from earlier work", "remark": "listed apart in the source"}, "[4]": {"details": "n = 63, cognition-related adverse events"}, "[5]": {"details": "n = 63, considered by investigators at least possibly related to study drug"}, "[6]": {"details": "n = 63, listed as dichlorphenamide"}}, "note": "Entries after “also recorded” stand apart in the source; their conditions may differ."}
{"molecule": "NS(=O)(=O)c1cc(Cl)c(Cl)c(S(N)(=O)=O)c1", "note": "[Dichlorphenamide, 4,5-dichloro-1,3-benzenedisulfonamide]", "values": [{"measurement": "Intensity of cognition-related adverse events (in words)", "setting": "[1]; 61-week study", "value": "Most cognition-related adverse events were mild in intensity; also recorded: mild or moderate in intensity"}, {"measurement": "Discontinuation due to cognition-related adverse event, patients %", "setting": "[1]; n = 63", "value": "(6.3) %"}, {"measurement": "Discontinuation due to cognition-related adverse event, patients n", "setting": "[1]; n = 63", "value": 4, "unit": "patients"}, {"measurement": "Resolution of last cognition-related adverse event: Resolved, patients %", "setting": "[1]; n = 63", "value": "(17.5) %"}, {"measurement": "Resolution of last cognition-related adverse event: Resolved, patients n", "setting": "[1]; n = 63", "value": 11, "unit": "patients"}, {"measurement": "Resolution of last cognition-related adverse event: Under treatment/observation, patients %", "setting": "[1]; n = 63", "value": "(7.9) %"}, {"measurement": "Resolution of last cognition-related adverse event: Under treatment/observation, patients n", "setting": "[1]; n = 63", "value": 5, "unit": "patients"}, {"measurement": "Any cognition-related adverse event, patients %", "setting": "[1]; n = 63, 61-week study duration", "value": "(25.4) %"}, {"measurement": "Any cognition-related adverse event, patients n", "setting": "[1]; n = 63, 61-week study duration, pooled hyper/hypokalemic periodic paralysis", "value": 16, "unit": "patients"}, {"measurement": "Any cognition-related adverse event, patients %", "setting": "[1]; n = 63, 61-week study duration, listed as dichlorphenamide", "value": 25.4, "unit": "%"}, {"measurement": "Adverse event intensity: Mild, patients %", "setting": "[1]; [4]", "value": "(14.3) %"}, {"measurement": "Adverse event intensity: Mild, patients n", "setting": "[1]; [4]", "value": 9, "unit": "patients"}, {"measurement": "Adverse event intensity: Moderate, patients %", "setting": "[1]; [4]", "value": "(7.9) %"}, {"measurement": "Adverse event intensity: Moderate, patients n", "setting": "[1]; [4]", "value": 5, "unit": "patients"}, {"measurement": "Adverse event intensity: Severe, patients %", "setting": "[1]; [4]", "value": "(3.2) %"}, {"measurement": "Adverse event intensity: Severe, patients n", "setting": "[1]; [4]", "value": 2, "unit": "patients"}, {"measurement": "Any drug-related cognition-related adverse event, patients %", "setting": "[1]; [5]", "value": "(25.4) %"}, {"measurement": "Any drug-related cognition-related adverse event, patients n", "setting": "[1]; [5]", "value": 16, "unit": "patients"}, {"measurement": "Discontinuation due to cognition-related adverse event, patients %", "setting": "[1]; [6]", "value": 6.3, "unit": "%"}, {"measurement": "Discontinuation due to cognition-related adverse event, patients n", "setting": "[1]; [6]", "value": "Four"}, {"measurement": "Patients with cognition-related adverse event who had the dose of dichlorphenamide reduced, %", "setting": "[1]; of 16 patients with cognition-related adverse event", "value": 37.5, "unit": "%"}, {"measurement": "Outcome of cognition-related adverse event after dose reduction", "setting": "[1]; six patients with reduced dose", "value": "resolved in all six cases; also recorded: Reduced doses frequently resolved these adverse events"}, {"measurement": "Onset of cognition-related adverse events", "setting": "[1]; time from start of dichlorphenamide treatment", "value": "during the first four weeks; also recorded: within the first month of therapy"}, {"measurement": "Solubility in dilute solutions of sodium carbonate and sodium hydroxide", "setting": "[2]; dilute sodium carbonate and sodium hydroxide solutions", "value": "soluble"}, {"measurement": "Solubility in water", "setting": "[2]; water", "value": "very slightly soluble"}, {"measurement": "Stability of dilute alkaline solutions", "setting": "[3]; room temperature", "value": "stable"}, {"measurement": "Storage stability", "setting": "[3]; storage", "value": "at least 36 months"}]}
